Each structure is given as a SMILES string.

Common to all, as to assay type: cell-based, human
Test [1] concerns CCL-5 release. Kind of test: LPS-induced CCL-5 release in isolated peripheral blood neutrophils (LUMINEX). The following applies: LPS (1 μg/ml), 6 h. How it is done: (§1) Neutrophils and monocytes were isolated from peripheral venous blood by standard laboratory procedures. In brief, peripheral venous blood was mixed with dextran 500 at 3% (in 0.9% saline) in a proportion of 2:1. This mixture was incubated at room temperature for 30 min until erythrocytes were sedimented. The upper phase was carefully collected and added on Ficoll-Paque Histopaque 1077 (Amershan Pharmacia Biotech, Barcelona, Spain) density gradient in a proportion of 3:1. The two phases generated were centrifuged at 150 g, 4° C. for 30 min. Thus, the interface was collected to isolate monocytes, and the pellet obtained (which is consisted a mixture of neutrophils and low proportion of residual erythrocytes and traces of eosinophils and basophils) was resuspended in an erythrocyte lysis buffer (Biolegend, UK) for 5 min in ice. Cell suspension was washed two times with phosphate buffer (PBS).
(§2) Peripheral neutrophil cell suspension was adjusted to 500×10^3 cells per well in 24-well plates and incubated in RPMI culture medium for 1 h into the incubator at 37° C., 5% CO2. […] Both the stimulus and drug were remained together for 6 h. Supernatants were collected and centrifuged at 120 g for 5 min, and the free-cell supernatant was used to measure IL-8, MMP-9, IL-1β, GM-CSF and CCL-5.
(§3) IL-8 was determined by using commercially available enzyme-linked immunosorbent assay kit for IL-8 (R&D Systems, UK) according to the manufacturer's protocol. MMP-9, IL-1β, GM-CSF and CCL-5 were measured by LUMINEX technology according to the manufacturer's protocol.
(§4) Data were presented as mean±SEM. IC50 values were calculated for each drug and their combinations. Statistical analysis of results was carried out by analysis of variance (ANOVA) followed by Bonferroni test, by Student's t test, or by non-parametric tests as appropriate (GraphPad Software Inc, San Diego, Calif., USA). Significance was accepted when P<0.05. For clinical correlations of lung function and gene expression from neutrophils the non-parametric Spearman correlation analysis was carried out.

Test [2] deals with intracellular ROS. Put plainly: Intracellular reactive oxygen species (ROS) by flow cytometry in whole blood neutrophils from COPD patients. The following applies: fMLP 1 μM or CSE 5%, 1 h, NAC 1 mM. How it is done:
Intracellular reactive oxygen species (ROS) were measured by a flow cytometry assay using 2′,7′-dichlorodihydrofluorescein diacetate (H2DCF-DA, Molecular Probes, UK) as previously outlined (Milara et al., 2010). H2DCF-DA was added for 15 min before stimulus to a final concentration of 5 μM to measure intracellular ROS. The bacterial peptide fMLP was added as stimulus at 1 μM […] to generate intracellular ROS (Elbim et al., 2001). In other experiments, to reproduce in vivo conditions, CSE 5% was added to generate intracellular ROS. Intracellular ROS was measured using fresh whole blood from COPD patients. Blood neutrophils were selected using CD16-Alexa Fluor 647 antibody (molecular probes, UK) as neutrophil marker, and CD14-PerCEP-Cy5.5 mouse antihuman (molecular probes, UK) as monocyte marker in an Epics Profile II flow cytometer. A total of 1 ml of whole blood was pre-incubated at 37° C. for 30 min with RNO ([…] (1 mM) and H2DCF-DA followed by fMLP 1 μM or CSE 5% stimulation for another 1 h. Then erythrocytes were lysed using a commercial erythrocyte lysis buffer (Biolegend, UK) for 10 min. Fluorescence intensity was measured in the polymorphonuclear region of whole blood in an Epics Profile II flow cytometer. Results were expressed as DCF fluorescence in relative fluorescence units (RFU).
To this end, whole blood was stimulated with the bacterial peptide fMLP 1 μM or with CSE 5% in presence or absence of RNO or NAC for 1 h.

Test [3] relates to PI3Kδ. Kind of test: Real time RT-PCR of PI3Kδ expression in CSE-stimulated neutrophils from COPD patients. Particulars: RNO 1 nM and 1 μM, DEX 1 μM, RNO 1 nM plus DEX 1 μM, NAC 1 mM, CSE 5%. As to the method:
Neutrophils and monocytes were isolated from peripheral venous blood by standard laboratory procedures. In brief, peripheral venous blood was mixed with dextran 500 at 3% (in 0.9% saline) in a proportion of 2:1. This mixture was incubated at room temperature for 30 min until erythrocytes were sedimented. The upper phase was carefully collected and added on Ficoll-Paque Histopaque 1077 (Amershan Pharmacia Biotech, Barcelona, Spain) density gradient in a proportion of 3:1. The two phases generated were centrifuged at 150 g, 4° C. for 30 min. […]
CSE was prepared as previously outlined (Milara et al.; Ortiz et al.). […] The quality of the prepared CSE solution was assessed based on the absorbance at 320 nm, which is the specific absorption wavelength of peroxynitrite. Stock solutions with an absorbance value of 3.0±0.1 were used. […]
Total RNA was obtained from isolated neutrophils under basal conditions or after different drug and stimulation periods defined above by using TriPure® Isolation Reagent (Roche, Indianapolis, USA). […] Relative quantification of these transcripts was determined with the 2^−ΔΔCt method using glyceraldehyde phosphate dehydrogenase (GAPDH) as endogenous control (Applied Biosystems; 4352339E) and normalized to control group as previously described (Milara et al., 2009).
Then, mRNA was isolated and quantified for different genes.
(In general: Quantitative PCR measures a nucleic acid by following its amplification.)

Test [4] relates to MMP-9 release. Kind of test: LPS- or CSE-induced MMP-9 release in isolated peripheral blood neutrophils (LUMINEX). The following applies: 6 h. How it is done: as §1
CSE was prepared as previously outlined (Milara et al.; Ortiz et al.). Briefly, the smoke of a research cigarette (2R4F; Tobacco Health Research, University of Kentucky, KY, USA) was generated by a respiratory pump (Apparatus Rodent Respirator 680; Harvard, Germany) through a puffing mechanism related to the human smoking pattern (3 puff/min; 1 puff 35 ml; each puff of 2 s duration with 0.5 cm above the filter) and was bubbled into a flask containing 25 ml of pre-warmed (37° C.) RPMI 1640 culture medium supplemented as describe above. The CSE solution was sterilized by filtration through a 0.22-μm cellulose acetate sterilizing system (Corning, N.Y.). The resultant CSE solution was considered to be 100% CSE and was used for experiments within 30 min of preparation. CSE 10% corresponds approximately to the exposure associated with smoking two packs per day (Su et al., 1998). The quality of the prepared CSE solution was assessed based on the absorbance at 320 nm, which is the specific absorption wavelength of peroxynitrite. Stock solutions with an absorbance value of 3.0±0.1 were used. To test for cytotoxicity from CSE, isolated neutrophils and monocytes were treated with CSE concentrations of up to 5% for 24.
as §2, §3, §4

Setting [5] is: CSE 5%, neutrophils from COPD patients.
Where [6] appears, read: CSE 5%, neutrophils from HEALTHY.
Setting [7] is: LPS (1 μg/ml), neutrophils from COPD patients.
The mark [8] stands for this setting: LPS (1 μg/ml), neutrophils from HEALTHY.

With `O=C(Nc1c(Cl)c[n+]([O-])cc1Cl)c1ccc(OC(F)F)c(OCC2CC2)c1` [RNO, roflumilast N-oxide], the “-log IC50, inhibition of CCL-5 release” value is reported as 8.77 ± 0.35 in test [1] (neutrophils from COPD patients) and 8.62 ± 0.14 in test [1] (neutrophils from HEALTHY). Also, the results for the “Maximal % Inhibition of CCL-5 release” value in test [1] (neutrophils from COPD patients) and in test [1] (neutrophils from HEALTHY) were 83.01 ± 6.74% and 79.34 ± 3.63%, respectively. For the same compound, the “effect on ROS generation in neutrophils” value in test [2] is “dose-dependently inhibited”; in test [2] (listed as Roflumilast N-oxide), “inhibits”. In addition, the “effect on CSE-induced PI3Kδ upregulation” value in test [3] was “inhibited”. In addition, the “-log IC50, inhibition of MMP-9 release” value in test [4] (setting [5]) worked out at 8.76 ± 0.11; in test [4] (setting [6]) it was 8.87 ± 5.6; in test [4] (setting [7]) it was 7.64 ± 0.23; in test [4] (setting [8]), 7.66 ± 0.22. Besides, the “Maximal % Inhibition of MMP-9 release” value in test [4] (setting [5]) was found to be 62.58 ± 2.28%; in test [4] (setting [6]), 64.8 ± 5.64%; in test [4] (setting [7]) it was 94.61 ± 11.82%; in test [4] (setting [8]) it was 98.9 ± 12.6%.

The values above are taken from patent US20150164916A1, “ROFLUMILAST COMPOSITIONS FOR THE TREATMENT OF COPD” (Forest Laboratories Holdings Ltd., priority 2012, published 2015).
